Where a name gives a salt, the structure may show the parent alone. Read-outs that look alike come from different tables or passages of the source.

For one assay, the target named is AT1 receptor (Homo sapiens (Human), UniProt P30556). In words: AT1 receptor binding inhibitory action.
The target of the next assay is PPARγ (Homo sapiens (Human), UniProt P37231). The assay is described as follows: PPARγ activating action (luciferase reporter in PPARγ:RXRα:4ERPP/CHO-K1 cells). In kind it is cell-based. Conditions: CHO-K1, 24 h, read-out: PPARγ activating action (activation % (1 μM)). On the procedure: Then the medium was removed from the 96-well half area white plate, 45 μl of Ham's F12 medium containing 0.1% fatty acid-free bovine serum albumin (BSA) and 5 μl of test compound were added, and the cells were cultured in a CO2 gas incubator at 37° C. for 1 day. The medium was removed and 20 μl of PicaGene 7.5 [manufactured by Dainippon Ink and Chemicals Corporation, Japan] diluted 2-fold with HBSS (HANKS' BALANCED SALT SOLUTION) [manufactured by BIO WHITTAKER, USA] was added. After stirring, the luciferase activity was determined using 1420 ARVO Multilabel Counter [manufactured by PerkinElmer, USA]. […] A CHO-K1 cell cultured in a 150 cm^2 cell culture flask [manufactured by Corning Costar Corporation, USA] containing Ham's F12 medium [manufactured by INVITROGEN, USA] supplemented with 10% fetal bovine serum [manufactured by INVITROGEN, USA] was scraped by treating with 0.5 g/L trypsin-0.2 g/L EDTA (ethylenediaminetetraacetic acid) [manufactured by Life Technologies, Inc., USA], and then the cell was washed with PBS (Phosphate-buffered saline) [manufactured by INVITROGEN, USA], centrifuged (1000 rpm, 5 minutes) and suspended in PBS. Subsequently, DNA was introduced into the cell under the conditions shown below using GENE PULSER [manufactured by Bio-Rad Laboratories, USA]. […] Subsequently, the cell was transferred into a F12 medium containing 10% fetal bovine serum and cultured for 24 hours, and then the cell was scraped again and centrifuged, and then suspended in Ham's F12 medium containing 10% fetal bovine serum supplemented with 500 μg/ml of Geneticin [manufactured by INVITROGEN, USA] and 250 μg/ml of Zeocin [manufactured by INVITROGEN, USA]. The obtained suspension was diluted to the density of 10^4 cells/ml and inoculated in a 96-well plate [manufactured by Corning Costar Corporation, USA], which was cultured in a CO2 gas incubator at 37° C., whereby obtaining a Geneticin- and Zeocin-resistant transformant.
A general note: In a reporter assay the amount or activity of a reporter protein is the signal.

Where [1] appears, read: test compound 1 μM, luciferase activity relative to control compound X (1 μM) = 100%, non-administration group = 0%.

Chain of AT1 receptor (P30556 whole entry): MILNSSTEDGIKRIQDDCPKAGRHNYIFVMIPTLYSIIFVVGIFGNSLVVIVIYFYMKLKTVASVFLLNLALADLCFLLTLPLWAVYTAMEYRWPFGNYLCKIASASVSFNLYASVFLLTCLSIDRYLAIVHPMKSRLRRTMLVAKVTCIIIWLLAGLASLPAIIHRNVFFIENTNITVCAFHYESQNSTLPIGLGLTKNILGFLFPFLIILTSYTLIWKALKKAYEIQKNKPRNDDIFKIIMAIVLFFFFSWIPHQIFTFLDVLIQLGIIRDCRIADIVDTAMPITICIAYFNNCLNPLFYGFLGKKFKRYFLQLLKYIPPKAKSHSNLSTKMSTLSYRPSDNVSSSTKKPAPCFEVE
Chain of PPARγ (P37231 29-505): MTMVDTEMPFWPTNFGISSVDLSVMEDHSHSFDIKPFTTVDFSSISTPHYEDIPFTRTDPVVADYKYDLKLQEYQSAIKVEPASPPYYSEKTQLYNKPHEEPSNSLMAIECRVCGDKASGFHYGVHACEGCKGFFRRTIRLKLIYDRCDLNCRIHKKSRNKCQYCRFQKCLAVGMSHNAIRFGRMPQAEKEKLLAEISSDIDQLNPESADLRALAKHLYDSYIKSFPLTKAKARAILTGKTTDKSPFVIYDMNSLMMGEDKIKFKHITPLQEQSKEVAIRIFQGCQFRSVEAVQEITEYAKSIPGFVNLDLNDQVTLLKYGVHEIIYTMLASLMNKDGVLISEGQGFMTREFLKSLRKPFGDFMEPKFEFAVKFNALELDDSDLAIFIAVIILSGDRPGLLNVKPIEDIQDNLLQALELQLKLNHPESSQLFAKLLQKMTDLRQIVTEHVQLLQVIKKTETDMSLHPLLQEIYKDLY
Chain of PPARγ (P19793 whole entry partner): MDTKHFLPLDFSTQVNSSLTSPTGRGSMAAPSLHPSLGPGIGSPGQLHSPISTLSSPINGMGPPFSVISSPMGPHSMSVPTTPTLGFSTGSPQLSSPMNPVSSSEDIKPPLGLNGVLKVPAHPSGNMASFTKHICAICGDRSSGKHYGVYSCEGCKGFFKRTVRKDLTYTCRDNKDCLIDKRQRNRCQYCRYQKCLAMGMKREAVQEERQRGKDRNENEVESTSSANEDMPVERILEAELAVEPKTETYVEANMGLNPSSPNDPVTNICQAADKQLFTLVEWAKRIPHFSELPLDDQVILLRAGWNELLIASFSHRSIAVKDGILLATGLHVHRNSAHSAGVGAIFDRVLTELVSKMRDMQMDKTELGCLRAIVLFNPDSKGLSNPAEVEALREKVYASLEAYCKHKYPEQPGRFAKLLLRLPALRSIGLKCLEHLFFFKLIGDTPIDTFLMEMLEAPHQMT

As a reminder, the IC50 is the concentration that inhibits the measured activity by half. Read a low IC50 as higher potency. At AT1 receptor, `CCc1cc2c(=O)n(CCN3CCOCC3)c(=O)n(Cc3ccc(-c4ccccc4-c4noc(=O)[nH]4)cc3F)c2s1` [Ex. 117, 6-ethyl-1-{[3-fluoro-2′-(5-oxo-4,5-dihydro-1,2,4-oxadiazol-3-yl)biphenyl-4-yl]methyl}-3-(2-morpholin-4-ylethyl)thieno[2,3-d]pyrimidine-2,4(1H,3H)-dione] returned an IC50 of 1.8 nM. Also, the activation at 1 µM on PPARγ (setting [1]) was 62%.

The compound `COc1ccccc1C(=O)Cn1c(=O)c2cc(C3CC3)sc2n(Cc2ccc(-c3ccccc3-c3noc(O)n3)cc2)c1=O` [Ex. 99, 6-cyclopropyl-3-[2-(2-methoxyphenyl)-2-oxoethyl]-1-{[2′-(5-oxo-4,5-dihydro-1,2,4-oxadiazol-3-yl)biphenyl-4-yl]methyl}thieno[2,3-d]pyrimidine-2,4(1H,3H)-dione potassium salt] came in with an IC50 at AT1 receptor of 1.2 nM. At PPARγ, the activation at 1 µM was 56%.

`Cc1ccc(CCn2c(=O)c3cc(CC(F)(F)F)sc3n(Cc3ccc(-c4ccccc4-c4noc(=O)[nH]4)cc3)c2=O)cc1` [Ex. 59, 3-[2-(4-methylphenyl)ethyl]-1-{[2′-(5-oxo-4,5-dihydro-1,2,4-oxadiazol-3-yl)biphenyl-4-yl]methyl}-6-(2,2,2-trifluoroethyl)thieno[2,3-d]pyrimidine-2,4(1H,3H)-dione] registered a concentration for half-maximal inhibition (IC50) on AT1 receptor of 1.2 nM. Further, at PPARγ (setting [1]), the activation at 1 µM amounted to 58%.

`COc1cc(F)ccc1C(=O)Cn1c(=O)c2cc(C3CC3)sc2n(Cc2ccc(-c3ccccc3-c3noc(=O)[nH]3)cc2F)c1=O` [Ex. 129, 6-cyclopropyl-3-[2-(4-fluoro-2-methoxyphenyl)-2-oxoethyl]-1-{[3-fluoro-2′-(5-oxo-4,5-dihydro-1,2,4-oxadiazol-3-yl)biphenyl-4-yl]methyl}thieno[2,3-d]pyrimidine-2,4(1H,3H)-dione] gave a half-inhibitory concentration (IC50) at AT1 receptor of 1.6 nM. The activation at 1 µM at PPARγ (setting [1]) was determined as 61%.

In turn, `COc1ccc(C(=O)Cn2c(=O)c3cc(C4CC4)sc3n(Cc3c(F)cc(-c4ccccc4-c4noc(O)n4)cc3F)c2=O)cc1` [Ex. 135, 6-cyclopropyl-1-{[3,5-difluoro-2′-(5-oxo-4,5-dihydro-1,2,4-oxadiazol-3-yl)biphenyl-4-yl]methyl}-3-[2-(4-methoxyphenyl)-2-oxoethyl]thieno[2,3-d]pyrimidine-2,4(1H,3H)-dione potassium salt] yielded a concentration for half-maximal inhibition (IC50) at AT1 receptor of 1.5 nM. The activation at 1 µM at PPARγ worked out at 71%.

The compound `CCc1cc2c(=O)n(CC(=O)c3ccccc3)c(=O)n(Cc3ccc(-c4ccccc4-c4noc(=O)[nH]4)cc3)c2s1` [Ex. 209, 6-ethyl-1-{[2′-(5-oxo-4,5-dihydro-1,2,4-oxadiazol-3-yl)biphenyl-4-yl]methyl}-3-(2-oxo-2-phenylethyl)thieno[2,3-d]pyrimidine-2,4(1H,3H)-dione] registered an IC50 on AT1 receptor of 1.4 nM. Moreover, at PPARγ (setting [1]), the activation at 1 µM turned out to be 66%.

On AT1 receptor, `CCc1cc2c(=O)n(CC(=O)c3ccc(OC)cc3)c(=O)n(Cc3c(F)cc(-c4ccccc4-c4noc(=O)[nH]4)cc3F)c2s1` [Ex. 197, 1-{[3,5-difluoro-2′-(5-oxo-4,5-dihydro-1,2,4-oxadiazol-3-yl)biphenyl-4-yl]methyl}-6-ethyl-3-[2-(4-methoxyphenyl)-2-oxoethyl]thieno[2,3-d]pyrimidine-2,4(1H,3H)-dione] registered an IC50 of 1.4 nM. For the same compound, the activation at 1 µM on PPARγ (setting [1]) came to 67%.

`CCc1cc2c(=O)n(CC(=O)c3ccc(Cl)s3)c(=O)n(Cc3ccc(-c4ccccc4-c4noc(=O)[nH]4)cc3)c2s1` [Ex. 150, 3-[2-(5-chloro-2-thienyl)-2-oxoethyl]-6-ethyl-1-{[2′-(5-oxo-4,5-dihydro-1,2,4-oxadiazol-3-yl)biphenyl-4-yl]methyl}thieno[2,3-d]pyrimidine-2,4(1H,3H)-dione] registered a half-inhibitory concentration (IC50) at AT1 receptor of 1.5 nM. For the same compound, at PPARγ (setting [1]), the activation at 1 µM came out at 33%.

Compound `CCc1cc2c(=O)n(CC(=O)c3cccs3)c(=O)n(Cc3ccc(-c4ccccc4-c4noc(=O)[nH]4)cc3)c2s1` [Ex. 221, 6-ethyl-1-{[2′-(5-oxo-4,5-dihydro-1,2,4-oxadiazol-3-yl)biphenyl-4-yl]methyl}-3-[2-oxo-2-(2-thienyl)ethyl]thieno[2,3-d]pyrimidine-2,4(1H,3H)-dione] showed an IC50 at AT1 receptor of 1.4 nM. Moreover, the activation at 1 µM on PPARγ (setting [1]) is 47%.

As for `CCc1cc2c(=O)n(CC(C)(C)C)c(=O)n(Cc3ccc(-c4ccccc4-c4noc(=O)[nH]4)cc3)c2s1` [Ex. 154, 3-(2,2-dimethylpropyl)-6-ethyl-1-{[2′-(5-oxo-4,5-dihydro-1,2,4-oxadiazol-3-yl)biphenyl-4-yl]methyl}thieno[2,3-d]pyrimidine-2,4(1H,3H)-dione], at AT1 receptor, the concentration for half-maximal inhibition (IC50) was 1.9 nM. In addition, the activation at 1 µM at PPARγ (setting [1]) was 51%.

As for `CCc1cc2c(=O)n(CC3(C)COC3)c(=O)n(Cc3ccc(-c4ccccc4-c4noc(=O)[nH]4)cc3)c2s1` [Ex. 144, 6-ethyl-3-[(3-methyloxetan-3-yl)methyl]-1-{[2′-(5-oxo-4,5-dihydro-1,2,4-oxadiazol-3-yl)biphenyl-4-yl]methyl}thieno[2,3-d]pyrimidine-2,4(1H,3H)-dione], the IC50 at AT1 receptor stood at 1.7 nM. Besides, the activation at 1 µM on PPARγ (setting [1]) amounted to 40%.

`CCc1cc2c(=O)n(CC(=O)C3CCCCC3)c(=O)n(Cc3ccc(-c4ccccc4-c4noc(=O)[nH]4)cc3)c2s1` [Ex. 205, 3-(2-cyclohexyl-2-oxoethyl)-6-ethyl-1-{[2′-(5-oxo-4,5-dihydro-1,2,4-oxadiazol-3-yl)biphenyl-4-yl]methyl}thieno[2,3-d]pyrimidine-2,4(1H,3H)-dione] registered a half-inhibitory concentration (IC50) at AT1 receptor of 1.5 nM. Besides, the activation at 1 µM at PPARγ (setting [1]) came to 69%.

For `CCc1cc2c(=O)n(CCc3ccc(F)cc3)c(=O)n(Cc3ccc(-c4ccccc4-c4noc(=O)[nH]4)cc3)c2s1` [Example 56, 6-ethyl-3-[2-(4-fluorophenyl)ethyl]-1-{[2′-(5-oxo-4,5-dihydro-1,2,4-oxadiazol-3-yl)biphenyl-4-yl]methyl}thieno[2,3-d]pyrimidine-2,4(1H,3H)-dione], on AT1 receptor, the 50% inhibitory concentration (IC50) worked out at 0.34 nM. Further, the activation at 1 µM at PPARγ (setting [1]) worked out at 65%.

For the compound `C=CCON=C(Cn1c(=O)c2cc(CC)sc2n(Cc2ccc(-c3ccccc3-c3noc(=O)[nH]3)cc2)c1=O)c1ccc(OC)cc1` [Ex. 214, 3-[2-[(allyloxy)imino]-2-(4-methoxyphenyl)ethyl]-6-ethyl-1-{[2′-(5-oxo-4,5-dihydro-1,2,4-oxadiazol-3-yl)biphenyl-4-yl]methyl}thieno[2,3-d]pyrimidine-2,4(1H,3H)-dione], the IC50 at AT1 receptor is 1.8 nM. In addition, the activation at 1 µM at PPARγ (setting [1]) was determined as 41%.

In turn, `COc1cccc(C(=O)Cn2c(=O)c3cc(C4CC4)sc3n(Cc3ccc(-c4ccccc4-c4noc(O)n4)cc3)c2=O)c1` [Ex. 107, 6-cyclopropyl-3-[2-(3-methoxyphenyl)-2-oxoethyl]-1-{[2′-(5-oxo-4,5-dihydro-1,2,4-oxadiazol-3-yl)biphenyl-4-yl]methyl}thieno[2,3-d]pyrimidine-2,4(1H,3H)-dione potassium salt] displayed an IC50 on AT1 receptor of 1.1 nM. For the same compound, the activation at 1 µM at PPARγ was 43%.

`CC(C)(C)C(O)Cn1c(=O)c2cc(C3CC3)sc2n(Cc2ccc(-c3ccccc3-c3noc(=O)[nH]3)cc2)c1=O` (centres unmarked) [Ex. 143, 6-cyclopropyl-3-(2-hydroxy-3,3-dimethylbutyl)-1-{[2′-(5-oxo-4,5-dihydro-1,2,4-oxadiazol-3-yl)biphenyl-4-yl]methyl}thieno[2,3-d]pyrimidine-2,4(1H,3H)-dione] displayed an IC50 at AT1 receptor of 1.4 nM. Moreover, the activation at 1 µM at PPARγ (setting [1]) turned out to be 45%.

Source of the values: patent US8501750B2, “Heterocyclic compound and use thereof” (Takeda Pharmaceutical Company Limited, priority 2007, dated 2013).
